Test results published in patent publication EP0908457B1, “3-(1,2-benzisothiazol- and isoxazol-5-Y1)-2,4(1H,3H)-pyrimidinedione or thione and 3-(1,2-benzisothiazol- and isoxazol-5-y1)-4(3H)-pyrimidinone or thione herbicidal agents” (BASF AKTIENGESELLSCHAFT, priority 1997, dated 1999).

Tests used:
[1] = system: Monochoria vaginalis, Presl.; test: Preemergence weed control under flooded paddy conditions, MOOVA (Monochoria); format: in vivo; conditions: flooded paddy; for MOOVA: preemergence weeds, herbicidal effect rating 0-9, three to four weeks after treatment; for herbicidal effect rating, MOOVA: preemergence, rated three to four weeks after treatment
[2] = system: Cyperus serotinus, Rottb.; test: Postemergence weed control under flooded paddy conditions, CYPSE (Flatsedge); format: in vivo; conditions: rated three to four weeks after treatment
Cyperus iria [3] = test: Preemergence weed control under flooded paddy conditions, CYPIR (Rice Flatsedge); format: in vivo; conditions: flooded paddy; for CYPIR: preemergence weeds, herbicidal effect rating 0-9, three to four weeks after treatment; for herbicidal effect rating, CYPIR: preemergence, rated three to four weeks after treatment
[4] = system: Monochoria vaginalis, Presl.; test: Postemergence weed control under flooded paddy conditions, MOOVA (Monochoria); format: in vivo; conditions: rated three to four weeks after treatment
Sagittaria pygmaea, L. [5] = test: Postemergence weed control under flooded paddy conditions, SAGPY (Arrowhead (Pygmaea)); format: in vivo; conditions: rated three to four weeks after treatment
Cyperus iria [6] = test: Postemergence weed control under flooded paddy conditions, CYPIR (Rice Flatsedge); format: in vivo; conditions: rated three to four weeks after treatment
[7] = system: Echinochloa oryzoides (Ard.) Fritsch.; test: Postemergence weed control under flooded paddy conditions, ECHORC (Watergrass (Calif.)); format: in vivo; conditions: rated three to four weeks after treatment
[8] = system: Echinochloa oryzoides (Ard.) Fritsch.; test: Preemergence weed control under flooded paddy conditions, ECHORC (Watergrass (Calif.)); format: in vivo; conditions: flooded paddy; for ECHORC: preemergence weeds, herbicidal effect rating 0-9, three to four weeks after treatment; for herbicidal effect rating, ECHORC: preemergence, rated three to four weeks after treatment
[9] = system: Oryza sativa, (L.) Tebonnet; test: Rice tolerance to post-transplant applications under flooded paddy conditions (Example 187), ORYSAT (Rice, Tebonnet); conditions: for ORYSAT: herbicidal effect rating 0-9, three to four weeks after treatment; for herbicidal effect rating ORYSAT: rated three to four weeks after treatment; for herbicidal effect rating ORYSAT: meaning of each grade not given here
Sagittaria pygmaea, L. [10] = test: Preemergence weed control under flooded paddy conditions, SAGPY (Arrowhead (Pygmaea)); format: in vivo; conditions: flooded paddy; for SAGPY: preemergence weeds, herbicidal effect rating 0-9, three to four weeks after treatment; for herbicidal effect rating, SAGPY: preemergence, rated three to four weeks after treatment
[11] = system: Cyperus serotinus, Rottb.; test: Preemergence weed control under flooded paddy conditions, CYPSE (Flatsedge); format: in vivo; conditions: for CYPSE: preemergence weeds, herbicidal effect rating 0-9, three to four weeks after treatment; for herbicidal effect rating, CYPSE: preemergence, rated three to four weeks after treatment
[12] = system: Oryza sativa, (L.) Tebonnet; test: Rice tolerance to post-transplant applications under flooded paddy conditions (Example 188), ORYSAT (Rice, Tebonnet); conditions: rated three to four weeks after treatment

COc1cc(C)c(I)cc1-c1nsc2ccc(-n3c(=O)cc(C(F)(F)F)n(C)c3=O)cc12 [Example 429, 2,4(1H,3H)-Pyrimidinedione, 3-[3-(5-iodo-2-methoxy-p-tolyl)-1,2-benzisothiazol-5-yl]-1-methyl-6-(trifluoromethyl)-]
8.3: CYPIR (Cyperus iria [3]; 0.1250 kg/ha)
2.3: ORYSAT ([9]; 0.1250 kg/ha) | SAGPY (Sagittaria pygmaea, L. [10]; 0.0620 kg/ha) | SAGPY (Sagittaria pygmaea, L. [10]; 0.1250 kg/ha)
1.0: CYPSE ([11]; 0.0620 kg/ha) | CYPSE ([11]; 0.1250 kg/ha) | CYPSE ([11]; 0.2500 kg/ha) | herbicidal effect rating, ORYSAT (rice tolerance) ([12]; Rate 0.0320 kg/ha) | herbicidal effect rating, ORYSAT (rice tolerance) ([12]; Rate 0.0620 kg/ha)
1.3: ORYSAT ([9]; 0.0320 kg/ha)
7.3: CYPIR (Cyperus iria [3]; 0.0320 kg/ha)
4.0: herbicidal effect rating, MOOVA ([4]; Rate 0.0620 kg/ha) | herbicidal effect rating, CYPIR (Cyperus iria [6]; Rate 0.0320 kg/ha) | herbicidal effect rating, ECHORC ([7]; Rate 0.0320 kg/ha)
7.0: herbicidal effect rating, MOOVA ([4]; Rate 0.1250 kg/ha) | herbicidal effect rating, MOOVA ([4]; Rate 0.2500 kg/ha) | herbicidal effect rating, CYPIR (Cyperus iria [6]; Rate 0.1250 kg/ha)
9.0: MOOVA ([1]; 0.0320 kg/ha) | MOOVA ([1]; 0.0620 kg/ha) | MOOVA ([1]; 0.1250 kg/ha) | MOOVA ([1]; 0.2500 kg/ha) | CYPIR (Cyperus iria [3]; 0.2500 kg/ha) | herbicidal effect rating, CYPIR (Cyperus iria [6]; Rate 0.2500 kg/ha) | herbicidal effect rating, ECHORC ([7]; Rate 0.2500 kg/ha) | ECHORC ([8]; 0.0320 kg/ha) | ECHORC ([8]; 0.0620 kg/ha) | ECHORC ([8]; 0.1250 kg/ha) | ECHORC ([8]; 0.2500 kg/ha)
0.0: herbicidal effect rating, CYPSE ([2]; Rate 0.0320 kg/ha) | herbicidal effect rating, CYPSE ([2]; Rate 0.0620 kg/ha) | herbicidal effect rating, CYPSE ([2]; Rate 0.1250 kg/ha) | herbicidal effect rating, CYPSE ([2]; Rate 0.2500 kg/ha) | herbicidal effect rating, SAGPY (Sagittaria pygmaea, L. [5]; Rate 0.0320 kg/ha) | herbicidal effect rating, SAGPY (Sagittaria pygmaea, L. [5]; Rate 0.0620 kg/ha) | herbicidal effect rating, SAGPY (Sagittaria pygmaea, L. [5]; Rate 0.1250 kg/ha) | herbicidal effect rating, SAGPY (Sagittaria pygmaea, L. [5]; Rate 0.2500 kg/ha) | CYPSE ([11]; 0.0320 kg/ha)
6.0: herbicidal effect rating, CYPIR (Cyperus iria [6]; Rate 0.0620 kg/ha) | herbicidal effect rating, ECHORC ([7]; Rate 0.0620 kg/ha) | herbicidal effect rating, ECHORC ([7]; Rate 0.1250 kg/ha)
2.0: herbicidal effect rating, MOOVA ([4]; Rate 0.0320 kg/ha) | ORYSAT ([9]; 0.0620 kg/ha) | SAGPY (Sagittaria pygmaea, L. [10]; 0.0320 kg/ha) | herbicidal effect rating, ORYSAT (rice tolerance) ([12]; Rate 0.1250 kg/ha) | herbicidal effect rating, ORYSAT (rice tolerance) ([12]; Rate 0.2500 kg/ha)
7.7: CYPIR (Cyperus iria [3]; 0.0620 kg/ha)
3.0: ORYSAT ([9]; 0.2500 kg/ha) | SAGPY (Sagittaria pygmaea, L. [10]; 0.2500 kg/ha)

COc1cc2c(cc1-c1nsc3ccc(-n4c(=O)cc(C(F)(F)F)n(C)c4=O)cc13)CCC2 [Example 380, 2,4(1H,3H)-Pyrimidinedione, 3-[3-(6-methoxy-5-indanyl)-1,2-benzisothiazol-5-yl]-1-methyl-6-(trifluoromethyl)-]
5.0: herbicidal effect rating ORYSAT ([9]; Rate 0.1250 kg/ha)
7.0: herbicidal effect rating, ECHORC ([7]; Rate 0.0320 kg/ha) | herbicidal effect rating, ORYSAT (rice tolerance) ([12]; Rate 0.0620 kg/ha) | herbicidal effect rating, ORYSAT (rice tolerance) ([12]; Rate 0.1250 kg/ha) | herbicidal effect rating, ORYSAT (rice tolerance) ([12]; Rate 0.2500 kg/ha)
8.0: herbicidal effect rating, CYPSE ([2]; Rate 0.2500 kg/ha) | herbicidal effect rating, SAGPY (Sagittaria pygmaea, L. [5]; Rate 0.2500 kg/ha) | herbicidal effect rating, ECHORC ([7]; Rate 0.0620 kg/ha) | herbicidal effect rating, CYPSE ([11]; Rate 0.1250 kg/ha) | herbicidal effect rating, CYPSE ([11]; Rate 0.2500 kg/ha)
2.0: herbicidal effect rating, CYPSE ([2]; Rate 0.0620 kg/ha) | herbicidal effect rating, CYPSE ([2]; Rate 0.1250 kg/ha) | herbicidal effect rating, SAGPY (Sagittaria pygmaea, L. [5]; Rate 0.1250 kg/ha)
2.5: herbicidal effect rating ORYSAT ([9]; Rate 0.0320 kg/ha)
4.0: herbicidal effect rating ORYSAT ([9]; Rate 0.0620 kg/ha) | herbicidal effect rating, SAGPY (Sagittaria pygmaea, L. [10]; Rate 0.1250 kg/ha)
3.0: herbicidal effect rating, ORYSAT (rice tolerance) ([12]; Rate 0.0320 kg/ha)
6.5: herbicidal effect rating ORYSAT ([9]; Rate 0.2500 kg/ha)
3.5: herbicidal effect rating, CYPSE ([11]; Rate 0.0320 kg/ha) | herbicidal effect rating, CYPSE ([11]; Rate 0.0620 kg/ha)
0.0: herbicidal effect rating, CYPSE ([2]; Rate 0.0320 kg/ha) | herbicidal effect rating, SAGPY (Sagittaria pygmaea, L. [5]; Rate 0.0320 kg/ha) | herbicidal effect rating, SAGPY (Sagittaria pygmaea, L. [5]; Rate 0.0620 kg/ha) | herbicidal effect rating, SAGPY (Sagittaria pygmaea, L. [10]; Rate 0.0320 kg/ha) | herbicidal effect rating, SAGPY (Sagittaria pygmaea, L. [10]; Rate 0.0620 kg/ha)
9.0: herbicidal effect rating, MOOVA ([1]; Rate 0.0320 kg/ha) | herbicidal effect rating, MOOVA ([1]; Rate 0.0620 kg/ha) | herbicidal effect rating, MOOVA ([1]; Rate 0.1250 kg/ha) | herbicidal effect rating, MOOVA ([1]; Rate 0.2500 kg/ha) | herbicidal effect rating, CYPIR (Cyperus iria [3]; Rate 0.0320 kg/ha) | herbicidal effect rating, CYPIR (Cyperus iria [3]; Rate 0.0620 kg/ha) | herbicidal effect rating, CYPIR (Cyperus iria [3]; Rate 0.1250 kg/ha) | herbicidal effect rating, CYPIR (Cyperus iria [3]; Rate 0.2500 kg/ha) | herbicidal effect rating, MOOVA ([4]; Rate 0.0320 kg/ha) | herbicidal effect rating, MOOVA ([4]; Rate 0.0620 kg/ha) | herbicidal effect rating, MOOVA ([4]; Rate 0.1250 kg/ha) | herbicidal effect rating, MOOVA ([4]; Rate 0.2500 kg/ha) | herbicidal effect rating, CYPIR (Cyperus iria [6]; Rate 0.0320 kg/ha) | herbicidal effect rating, CYPIR (Cyperus iria [6]; Rate 0.0620 kg/ha) | herbicidal effect rating, CYPIR (Cyperus iria [6]; Rate 0.1250 kg/ha) | herbicidal effect rating, CYPIR (Cyperus iria [6]; Rate 0.2500 kg/ha) | herbicidal effect rating, ECHORC ([7]; Rate 0.1250 kg/ha) | herbicidal effect rating, ECHORC ([7]; Rate 0.2500 kg/ha) | herbicidal effect rating, ECHORC ([8]; Rate 0.0320 kg/ha) | herbicidal effect rating, ECHORC ([8]; Rate 0.0620 kg/ha) | herbicidal effect rating, ECHORC ([8]; Rate 0.1250 kg/ha) | herbicidal effect rating, ECHORC ([8]; Rate 0.2500 kg/ha) | herbicidal effect rating, SAGPY (Sagittaria pygmaea, L. [10]; Rate 0.2500 kg/ha)
